Experimental data: US8772286B2, “MK2 inhibitors” (Merck Sharp & Dohme B.V., priority 2009, dated 2014)
Values after ≈ are worked out from the molar mass of the structure shown. Read-outs that look alike come from different tables or passages of the source.

Key:
[1] = Solubility determination of MK2 inhibitors (kinetic aqueous solubility, UPLC); type: physicochemical; conditions: aqueous buffer (system solution from pION inc.), 22 °C, pH 7.4, aqueous buffer, kinetic from dmso stock, pH 7.4, room temperature, about 1% DMSO, 24 h shaking; read-out: solubility
Protocol: The solubility can be determined using the Automated Kinetic Aqueous Solubility (AKASol) method, which is an HPLC-UV based method. The method is derived from the classical saturated shake-flask solubility method which has been adapted to the 96-well microtitre plate format, allowing the use of DMSO stock solutions. The solubility is determined by measuring the amount of compound in a saturated aqueous solution, quantified by an external calibration curve of the compound dissolved in DMSO. The solubility (mg/L) is measured at pH 7.4, at room temperature and the final concentration of DMSO in the sample solution is 1%.
The samples were prepared from 10 mM DMSO stock solutions. For each compound under investigation, a volume (9 μL) of the DMSO stock solution is transferred from the DMSO stock solution into 891 μL of buffer solution (system solution from pION inc.) in a 96 deep well plate, which equates to approximately 1% DMSO, using the Packard Multiprobe II robot liquid handling system. The pH of the buffer is manually adjusted at pH 7.4 by adding NaOH. This procedure is done in duplicate for each sample. After shaking for 24 h on a vortex mixer (Heidolph, Titramax 101) at 450 rpm and at room temperature (21-23° C.), 300 uL of the incubated sample is transferred from the deep well plate to a filter plate (PVDF, 0.45 um) on a vacuum manifold. To the filtrate (150 uL) 1-propanol (50 uL) is added to suppress precipitation and this solution is then analysed by UPLC. The solubility is determined using the calibration line previously prepared.
Preparation of the Standards and Built up of a Calibration Line
The calibration line is built with different concentrations of the test compound (standards), prepared from the same 10 mM DMSO stock solution. A volume (7 uL) from the same DMSO stock solution was diluted with DMSO (273 uL) leading to a solution with concentration of 0.25 mM. From this solution, three different injection volumes (0.2, 1, 1.8 uL) were injected on UPLC. The respective peak areas are plotted against amount of compound to build up the calibration line. The calibration line is used to determine the amount of dissolved compound in each sample, selecting the injection that gave peak areas closest to the peak area range of the calibration standards.

MK2 enzyme = target: T1, MK2 enzyme (Homo sapiens, UniProt P49137); assay: MK2 enzyme activity, IMAP fluorescence polarization assay; type: biochemical
T1 construct: MK2 enzyme (active enzyme (peptide 46-end (Millipore))); purchased Millipore
T1 sequence (P49137 46-400 limits assumed): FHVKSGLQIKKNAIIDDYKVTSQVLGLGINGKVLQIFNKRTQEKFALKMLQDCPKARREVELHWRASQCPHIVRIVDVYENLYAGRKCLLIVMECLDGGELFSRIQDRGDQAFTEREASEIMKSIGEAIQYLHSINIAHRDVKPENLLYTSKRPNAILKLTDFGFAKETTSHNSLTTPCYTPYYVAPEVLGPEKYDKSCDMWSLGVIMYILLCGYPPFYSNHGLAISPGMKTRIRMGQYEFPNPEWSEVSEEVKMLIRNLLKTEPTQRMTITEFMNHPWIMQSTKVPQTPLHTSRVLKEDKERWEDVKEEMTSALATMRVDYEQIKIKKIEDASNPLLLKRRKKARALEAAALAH
Source text: In another assay the MK2 kinase activity can be determined by using an IMAP assay (Immobilized Metal Assay for Phosphochemicals—based coupled assay). IMAP is a homogeneous fluorescence polarization (FP) assay based on affinity capture of phosphorylated peptide substrates. IMAP uses fluorescein-labeled peptide substrates that, upon phosphorylation by a protein kinase, bind to so called IMAP nanoparticles, which are derivatized with trivalent metal complexes. […] In such an assay, MK2 phosphorylates a fluorescein-labeled peptide substrate (see example 14).
MK2 enzyme activity is measured using the IMAP (immobilized metal ion affinity-based fluorescence polarization) assay as outlined below.
The enzyme is diluted to 100 U/mL the day before use in KR buffer (10 mM Tris-HCl, 10 mM MgCl2, 0.01% Tween-20, 0.05% NaN3, 2 mM DTT, pH 7.2) and stored overnight at −20° C.
The dilutions in DMSO are then diluted 50-fold in KR-buffer of which 5 μl is used in the assay, leading to a final compound concentration range in the assay from 10 μM to 0.316 nM.
After 60 min incubation at room temperature in the dark the FP signal is read. Fluorescence at 535 nm is measured using parallel and perpendicular filters to determine differences in rotation due to binding of the phosphorylated substrate peptide to the beads. Values are calculated as percentage of the difference in readout (ΔmPi) of the controls with and without ATP. EC50 values are determined by curve fitting of the experimental results using Activity Base.

[2] = MK2 IMAP assay, 1 μM ATP, 30 min pre-incubation, 2 h room temperature, read-out: pEC50 value (converted)

| solubility at 24 h [1] | EC50 (MK2 enzyme; [2]) | SMILES | EC50 (MK2 enzyme) |
| --- | --- | --- | --- |
| 20 to 50 µg/mL (≈ 44.5 to 111 µM) | 31.6 to 316 nM | O=C1NCC2(CCNCC2)c2[nH]c(-c3ccnc(-c4ccc5oc6ccccc6c5c4)n3)cc21 [1—26, 2′-(2-(dibenzo[b,d]furan-2-yl)pyrimidin-4-yl)-5′,6′-dihydrospiro[piperidine-4,7′-pyrrolo[3,2-c]pyridin]-4′(1′H)-one] | – |
| ≥ 50 µg/mL | 3.16 to 31.6 nM | O=C1NCC2(CCNCC2)c2[nH]c(-c3ccnc(-c4cc5ccccc5s4)n3)cc21 [1—28, 2′-(2-(benzo[b]thiophen-2-yl)pyrimidin-4-yl)-5′,6′-dihydrospiro[piperidine-4,7′-pyrrolo[3,2-c]pyridin]-4′(1′H)-one] | – |
| ≥ 50 µg/mL | 3.16 to 31.6 nM | O=C(NC1CCCCC1)c1ccc(-c2nccc(-c3cc4c([nH]3)C3(CCNCC3)CNC4=O)n2)cc1Cl [1—31, 2-chloro-N-cyclohexyl-4-(4-(4′-oxo-1′,4′,5′,6′-tetrahydrospiro[piperidine-4,7′-pyrrolo[3,2-c]pyridine]-2′-yl)pyrimidin-2-yl)benzamide] | – |
| ≥ 50 µg/mL | 3.16 to 31.6 nM | O=C1NCC2(CCNCC2)c2[nH]c(-c3ccnc(-c4ccc(Cl)cc4F)n3)cc21 [1—32, 2′-(2-(4-chloro-2-fluorophenyl)pyrimidin-4-yl)-5′,6′-dihydrospiro[piperidine-4,7′-pyrrolo[3,2-c]pyridin]-4′(1′H)-one] | – |
| ≥ 50 µg/mL | 31.6 to 316 nM | O=C1NCC2(CCNCC2)c2[nH]c(-c3ccnc(-c4cccc(-c5ccccc5)c4)n3)cc21 [1—33, 2′-(2-(biphenyl-3-yl)pyrimidin-4-yl)-5′,6′-dihydrospiro[piperidine-4,7′-pyrrolo[3,2-c]pyridin]-4′(1′H)-one] | – |
| ≥ 50 µg/mL | 3.16 to 31.6 nM | O=C1NCC2(CCNCC2)c2[nH]c(-c3ccnc(-c4cccc(C(F)(F)F)c4)n3)cc21 [1—35, 2′-(2-(3-(trifluoromethyl)phenyl)pyrimidin-4-yl)-5′,6′-dihydrospiro[piperidine-4,7′-pyrrolo[3,2-c]pyridin]-4′(1′H)-one] | – |
| ≥ 50 µg/mL | 3.16 to 31.6 nM | O=C(NC1CCCCC1)c1ccc(-c2nccc(-c3cc4c([nH]3)C3(CCNCC3)CNC4=O)n2)cc1 [1—36, N-cyclohexyl-4-(4-(4′-oxo-1′,4′,5′,6′-tetrahydrospiro[piperidine-4,7′-pyrrolo[3,2-c]pyridine]-2′-yl)pyrimidin-2-yl)benzamide] | – |
| 20 to 50 µg/mL (≈ 47.5 to 119 µM) | 3.16 to 31.6 nM | O=C1NCC2(CCNCC2)c2[nH]c(-c3nc(-c4ccc5c(c4)OCO5)ncc3F)cc21 [4—2, 2′-(2-(benzo[d][1,3]dioxol-5-yl)-5-fluoropyrimidin-4-yl)-5′,6′-dihydrospiro[piperidine-4,7′-pyrrolo[3,2-c]pyridin]-4′(1′H)-one] | – |
| ≥ 50 µg/mL | ≤ 3.16 nM | O=C1NCC2(CCNCC2)c2[nH]c(-c3nc(-c4cnc5ccccc5c4)ncc3F)cc21 [4—3, 2′-(5-fluoro-2-(quinolin-3-yl)pyrimidin-4-yl)-5′,6′-dihydrospiro[piperidine-4,7′-pyrrolo[3,2-c]pyridin]-4′(1′H)-one] | – |
| ≥ 50 µg/mL | 3.16 to 31.6 nM | O=C1NCC2(CCCNC2)c2[nH]c(-c3ccnc(-c4ccc5c(c4)OCO5)n3)cc21 (centres unmarked) [5—2, 2′-(2-(benzo[d][1,3]dioxol-5-yl)pyrimidin-4-yl)-5′,6′-dihydrospiro[piperidine-3,7′-pyrrolo[3,2-c]pyridin]-4′(1′H)-one] | – |

More lines, now with the values behind:

| SMILES | solubility at 24 h [1] | EC50 (MK2 enzyme; [2]) | EC50 (MK2 enzyme) |
| --- | --- | --- | --- |
| CC(C)Cc1ccc(-c2nccc(-c3cc4c([nH]3)C3(CCNCC3)CNC4=O)n2)cc1 [1—23, 2′-(2-(4-isobutylphenyl)pyrimidin-4-yl)-5′,6′-dihydrospiro[piperidine-4,7′-pyrrolo[3,2-c]pyridin]-4′(1′H)-one] | ≥ 50 µg/mL | 3.16 to 31.6 nM | – |
| O=C1NCC2(CCNCC2)c2[nH]c(-c3ccnc(-c4ccc5ccccc5c4)n3)cc21 [1—24, 2′-(2-(naphthalen-2-yl)pyrimidin-4-yl)-5′,6′-dihydrospiro[piperidine-4,7′-pyrrolo[3,2-c]pyridin]-4′(1′H)-one] | ≥ 50 µg/mL | 3.16 to 31.6 nM | – |
| O=C1NCC2(CCNCC2)c2[nH]c(-c3ccnc(-c4cc(Cl)cc(Cl)c4)n3)cc21 [1—25, 2′-(2-(3,5-dichlorophenyl)pyrimidin-4-yl)-5′,6′-dihydrospiro[piperidine-4,7′-pyrrolo[3,2-c]pyridin]-4′(1′H)-one] | ≥ 50 µg/mL | 3.16 to 31.6 nM | – |
| CC(C)COc1ccc(-c2nccc(-c3cc4c([nH]3)C3(CCNCC3)CNC4=O)n2)cc1 [1—27, 2′-(2-(4-isobutoxyphenyl)pyrimidin-4-yl)-5′,6′-dihydrospiro[piperidine-4,7′-pyrrolo[3,2-c]pyridin]-4′(1′H)-one] | ≥ 50 µg/mL | 3.16 to 31.6 nM | – |
| NC(=O)c1cccc(-c2nccc(-c3cc4c([nH]3)C3(CCNCC3)CNC4=O)n2)c1 [1—29, 3-(4-(4′-oxo-1′,4′,5′,6′-tetrahydrospiro[piperidine-4,7′-pyrrolo[3,2-c]pyridine]-2′-yl)pyrimidin-2-yl)benzamide] | ≥ 50 µg/mL | 3.16 to 31.6 nM | – |
| CC(=O)c1cccc(-c2nccc(-c3cc4c([nH]3)C3(CCNCC3)CNC4=O)n2)c1 [1—30, 2′-(2-(3-acetylphenyl)pyrimidin-4-yl)-5′,6′-dihydrospiro[piperidine-4,7′-pyrrolo[3,2-c]pyridin]-4′(1′H)-one] | ≥ 50 µg/mL | 3.16 to 31.6 nM | – |
| O=C1NCC2(CCNCC2)c2[nH]c(-c3ccnc(-c4cc(C(F)(F)F)cc(C(F)(F)F)c4)n3)cc21 [1—34, 2′-(2-(3,5-bis(trifluoromethyl)phenyl)pyrimidin-4-yl)-5′,6′-dihydrospiro[piperidine-4,7′-pyrrolo[3,2-c]pyridin]-4′(1′H)-one] | ≥ 50 µg/mL | 31.6 to 316 nM | – |
| CCN1CCC2(CC1)CNC(=O)c1cc(-c3ccnc(-c4cc5ccccc5o4)n3)[nH]c12 [2—2, 2′-(2-(benzofuran-2-yl)pyrimidin-4-yl)-1-ethyl-5′,6′-dihydrospiro[piperidine-4,7′-pyrrolo[3,2-c]pyridin]-4(1′H)-one] | ≥ 50 µg/mL | – | 31.6 to 316 nM |
| CC(=O)NCCCN1CCC2(CC1)CNC(=O)c1cc(-c3ccnc(-c4cc5ccccc5o4)n3)[nH]c12 [3—2, N-(3-(2′-(2-(benzofuran-2-yl)pyrimidin-4-yl)-4′-oxo-1′,4′,5′,6′-tetrahydrospiro[piperidine-4,7′-pyrrolo[3,2-c]pyridine]-1-yl)propyl)acetamide] | ≥ 50 µg/mL | 31.6 to 316 nM | – |
| CNC(=O)c1ccc(-c2ncc(F)c(-c3cc4c([nH]3)C3(CCNCC3)CNC4=O)n2)cc1 [4—4, 4-(5-fluoro-4-(4′-oxo-1′,4′,5′,6′-tetrahydrospiro[piperidine-4,7′-pyrrolo[3,2-c]pyridine]-2′-yl)pyrimidin-2-yl)-N-methylbenzamide] | 20 to 50 µg/mL (≈ 46 to 115 µM) | 3.16 to 31.6 nM | – |
| O=C1NCC2(CCNCC2)c2[nH]c(-c3nc(-c4ccc(Cl)cc4F)ncc3F)cc21 [4—5, 2′-(2-(4-chloro-2-fluorophenyl)-5-fluoropyrimidin-4-yl)-5′,6′-dihydrospiro[piperidine-4,7′-pyrrolo[3,2-c]pyridin]-4′(1′H)-one] | ≥ 50 µg/mL | 3.16 to 31.6 nM | – |
| O=C1NCC2(CCNC2)c2[nH]c(-c3ccnc(-c4ccc5c(c4)OCO5)n3)cc21 (centres unmarked) [6—2, 2′-(2-(benzo[d][1,3]dioxol-5-yl)pyrimidin-4-yl)-5′,6′-dihydrospiro[pyrrolidine-3,7′-pyrrolo[3,2-c]pyridin]-4′(1′H)-one] | ≥ 50 µg/mL | 3.16 to 31.6 nM | – |
